Assay results from ChEMBL document CHEMBL1201862, “PubChem BioAssay data set” (2004).
Activity calls are given as the source filed them.

How the values were obtained:
[1] = intracellular Trypanosoma cruzi inhibitors in host cells – cell-based, plate reader, cherry-pick samples, set 3, dose response (AID 651818); assay type: functional;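 further: compounds incubated with infected cells for about four days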
[2] = inhibitors of firefly luciferase expression or activity, dose response, H4 neuroglioma cells, luminescence (AID 1990); assay type: functional, cell-based
[3] = Luminescence Cell-Based Dose Response HTS to Identify Inhibitors of 5'UTR Stem-Loop Driven Prion Protein mRNA Translation in H4 Neuroglioblastoma Cells. [Related pubchem assays: 1827 (Project Summary), 1813 (Primary HTS)]; assay type: functional
[4] = biological target: T1, Heat shock factor protein 1 (Mus musculus, UniProt P38532); experiment: inhibition of MG132-induced HSE-luciferase signal, confirmation, cell-based, NIH3T3, luminescence, dose retest (AID 2382); assay type: functional;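 further: NIH3T3 fibroblasts with HSF1-driven luciferase reporter stressed by proteasome inhibitor MG132; luminescence from HSF1-driven luciferase expression after 8 hours of MG132 stress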
T1 sequence (P38532 whole entry): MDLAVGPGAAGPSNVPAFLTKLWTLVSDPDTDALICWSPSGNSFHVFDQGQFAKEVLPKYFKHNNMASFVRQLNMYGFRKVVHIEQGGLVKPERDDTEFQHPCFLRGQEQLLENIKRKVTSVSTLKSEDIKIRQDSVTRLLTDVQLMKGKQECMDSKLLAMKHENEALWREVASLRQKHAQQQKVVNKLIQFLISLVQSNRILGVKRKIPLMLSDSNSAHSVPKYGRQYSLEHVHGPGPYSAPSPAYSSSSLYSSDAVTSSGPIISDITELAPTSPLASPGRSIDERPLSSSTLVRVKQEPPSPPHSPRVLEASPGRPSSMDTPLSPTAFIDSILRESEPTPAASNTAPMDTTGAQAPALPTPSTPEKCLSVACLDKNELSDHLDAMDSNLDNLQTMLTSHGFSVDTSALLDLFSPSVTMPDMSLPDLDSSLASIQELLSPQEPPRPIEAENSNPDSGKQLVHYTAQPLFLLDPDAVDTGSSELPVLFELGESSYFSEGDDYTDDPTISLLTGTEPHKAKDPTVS

[5] = inhibitors of SNCA 5'UTR-driven reporter translation, confirmation, H4 neuroglioma cells, luminescence (AID 1988); assay type: functional, cell-based
[6] = A549 cell cytotoxicity, dose response, cytotoxicity control, plate reader, cherry-pick, antagonist series (AID 743412); assay type: functional, cell-based
[7] = LGR2 antagonists, dose response, cell-based, HEK293, CRE-luciferase reporter, cherry pick, set 2 (AID 743343); assay type: functional;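 further: transfected cells were stimulated with diluted bursicon conditioned medium after compound addition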
[8] = MC4R antagonists, dose response, counter-screen for LGR2 antagonist project, cell-based, plate reader, cherry pick (AID 743444); assay type: functional;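 further: transfected HEK 293 cells stimulated with alpha-MSH peptide; potency of inhibitors of the alpha-MSH evoked signal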
[9] = biological target: T2, Short transient receptor potential channel 4 (Mus musculus, UniProt Q9QUQ5); experiment: mouse TRPC4 channel activators, dose response, cell-based, HEK293 TRPC4/mu-opioid, Fluo-4 calcium (AID 434937); assay type: functional
T2 sequence (Q9QUQ5 whole entry): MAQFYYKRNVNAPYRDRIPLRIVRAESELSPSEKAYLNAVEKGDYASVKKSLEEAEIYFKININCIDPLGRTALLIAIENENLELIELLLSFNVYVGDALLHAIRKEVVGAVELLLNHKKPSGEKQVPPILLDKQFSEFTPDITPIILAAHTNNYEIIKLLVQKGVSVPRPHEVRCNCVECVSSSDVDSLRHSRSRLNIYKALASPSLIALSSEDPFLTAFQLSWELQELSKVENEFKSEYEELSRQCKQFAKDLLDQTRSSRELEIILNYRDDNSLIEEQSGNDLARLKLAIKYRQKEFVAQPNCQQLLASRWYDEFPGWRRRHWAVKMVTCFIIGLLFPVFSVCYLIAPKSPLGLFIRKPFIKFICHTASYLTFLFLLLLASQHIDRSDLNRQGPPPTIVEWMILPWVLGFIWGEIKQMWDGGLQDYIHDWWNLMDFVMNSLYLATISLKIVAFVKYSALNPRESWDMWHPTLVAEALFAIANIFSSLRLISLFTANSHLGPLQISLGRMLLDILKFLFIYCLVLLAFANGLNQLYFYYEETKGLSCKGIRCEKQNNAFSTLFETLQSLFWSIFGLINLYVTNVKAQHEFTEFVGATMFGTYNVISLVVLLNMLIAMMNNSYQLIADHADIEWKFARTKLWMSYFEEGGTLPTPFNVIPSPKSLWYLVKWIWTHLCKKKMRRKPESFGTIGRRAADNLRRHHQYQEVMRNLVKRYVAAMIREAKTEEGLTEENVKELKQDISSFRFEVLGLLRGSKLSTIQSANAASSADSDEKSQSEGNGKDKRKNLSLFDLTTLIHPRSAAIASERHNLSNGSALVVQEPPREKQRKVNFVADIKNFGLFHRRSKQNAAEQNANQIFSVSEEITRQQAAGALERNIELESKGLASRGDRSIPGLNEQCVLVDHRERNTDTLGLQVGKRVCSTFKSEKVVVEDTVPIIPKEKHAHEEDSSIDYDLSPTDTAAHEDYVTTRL

P388/ADR = experiment: cells; assay type: functional; settings: Mus musculus
SN12K1 = experiment: cells; assay type: functional; settings: Homo sapiens, SN12K1
P388 = experiment: cells; assay type: functional; settings: Mus musculus, P388
[10] = biological target: Luciferin 4-monooxygenase (Photinus pyralis, UniProt P08659); experiment: firefly luciferase enzyme inhibitors, dose response, biochemical, luminescence (AID 1891)
[11] = Luminescence Cell-Based Dose Confirmation HTS to Identify Inhibitors of Platelet Dense Granule Release. [Related pubchem assays: 1663 (Primary HTS), 1678 (Summary of Project)]; assay type: functional
H9c2 = experiment: cells; assay type: functional, cell-based; settings: Rattus norvegicus, H9c2, Myocardium;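 further: confirmatory concentration-response retest of ultra-high-throughput screening hits for modulation of myocardial damage; cell death induced by hydrogen peroxide oxidative stress; compound pretreatment for 60 min then peroxide exposure for 2 h; potency is for protecting the cells against peroxide damage rather than for killing them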
[12] = biological target: Glyceraldehyde-3-phosphate dehydrogenase (Homo sapiens, UniProt P04406)
Protein skinhead-1 = biological target: T3, Protein skinhead-1 (Caenorhabditis elegans, UniProt P34707); assay type: functional
T3 sequence (P34707 whole entry): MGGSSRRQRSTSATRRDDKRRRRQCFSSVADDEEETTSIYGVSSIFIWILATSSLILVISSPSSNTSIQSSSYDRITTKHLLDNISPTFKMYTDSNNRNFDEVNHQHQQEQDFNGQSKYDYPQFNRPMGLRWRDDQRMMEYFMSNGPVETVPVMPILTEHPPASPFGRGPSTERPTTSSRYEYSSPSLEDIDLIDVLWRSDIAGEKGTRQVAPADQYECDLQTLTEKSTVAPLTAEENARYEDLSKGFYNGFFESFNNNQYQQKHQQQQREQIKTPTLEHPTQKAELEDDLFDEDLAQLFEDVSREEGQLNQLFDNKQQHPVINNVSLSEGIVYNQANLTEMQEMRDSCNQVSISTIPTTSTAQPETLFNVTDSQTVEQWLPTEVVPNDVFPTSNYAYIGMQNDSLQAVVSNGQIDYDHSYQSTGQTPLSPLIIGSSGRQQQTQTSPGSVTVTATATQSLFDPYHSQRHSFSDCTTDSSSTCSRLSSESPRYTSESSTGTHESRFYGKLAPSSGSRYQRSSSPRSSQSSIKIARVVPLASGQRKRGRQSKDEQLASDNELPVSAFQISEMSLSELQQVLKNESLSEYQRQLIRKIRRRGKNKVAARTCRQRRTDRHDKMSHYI

[13] = Luminescence Cell-Based Dose Confirmation HTS to Identify Activators of 5'UTR Stem-Loop Driven Alpha-Synuclein mRNA Translation in H4 Neuroglioblastoma Cells. [Related pubchem assays: 1829 (Project Summary), 1814 (Primary HTS)]; assay type: functional
[14] = Luminescence Cell-Based Dose Response HTS to Identify Activators of Luciferase Translation or Activity in H4 […] Cells. [Related pubchem assays: 1829 (Project Summary), 1814 (Primary HTS)]; assay type: functional
H4 = experiment: Luminescence Cell-Based Dose Response HTS to Identify Activators of 5'UTR Stem-Loop Driven Prion Protein mRNA Translation in H4 Neuroglioblastoma Cells. [Related pubchem assays: 1829 (Project Summary), 1814 (Primary HTS)]; assay type: functional; settings: Homo sapiens

Glyceraldehyde-3-phosphate dehydrogenase, sequence (P04406 whole entry): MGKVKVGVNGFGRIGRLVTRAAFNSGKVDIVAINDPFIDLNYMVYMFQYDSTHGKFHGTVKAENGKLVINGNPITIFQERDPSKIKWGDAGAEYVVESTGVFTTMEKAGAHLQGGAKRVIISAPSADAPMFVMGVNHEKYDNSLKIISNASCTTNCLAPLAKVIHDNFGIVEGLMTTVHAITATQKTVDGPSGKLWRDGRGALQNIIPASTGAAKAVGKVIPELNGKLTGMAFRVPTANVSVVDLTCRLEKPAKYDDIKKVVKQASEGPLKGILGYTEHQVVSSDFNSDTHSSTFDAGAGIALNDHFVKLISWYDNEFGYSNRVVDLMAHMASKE
Luciferin 4-monooxygenase, sequence (P08659 whole entry): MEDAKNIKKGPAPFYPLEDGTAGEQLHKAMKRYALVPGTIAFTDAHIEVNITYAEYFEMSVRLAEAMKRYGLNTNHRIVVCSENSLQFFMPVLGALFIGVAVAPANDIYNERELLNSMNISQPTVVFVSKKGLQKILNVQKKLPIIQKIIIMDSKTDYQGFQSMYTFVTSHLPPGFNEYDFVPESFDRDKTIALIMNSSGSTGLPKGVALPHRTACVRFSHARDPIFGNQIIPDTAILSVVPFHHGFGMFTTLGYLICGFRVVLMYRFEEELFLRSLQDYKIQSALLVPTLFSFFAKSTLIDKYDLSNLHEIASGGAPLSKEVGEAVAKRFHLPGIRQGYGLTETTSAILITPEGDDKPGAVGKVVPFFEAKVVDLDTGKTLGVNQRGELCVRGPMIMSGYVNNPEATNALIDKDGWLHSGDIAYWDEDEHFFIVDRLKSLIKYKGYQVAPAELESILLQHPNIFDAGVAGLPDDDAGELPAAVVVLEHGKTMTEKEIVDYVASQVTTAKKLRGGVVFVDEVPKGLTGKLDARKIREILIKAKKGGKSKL

C[C@@H]1CN([C@@H](C)CO)C(=O)c2cccc(NC(=O)c3ccc(-c4nccs4)cc3)c2O[C@@H]1CN(C)Cc1ccc(C(=O)Nc2ccccc2N)cc1
AC50 [1]: 1.61 µM (active)

CN1CCN(c2ccc(NC(=O)N3CCc4ccccc43)cc2)CC1
EC50 [2]: 6.81 µM (inconclusive)
EC50 [3]: 9.49 µM (active)
EC50 [4]: < 160 nM (active)
EC50 [5]: > 120 µM (not active)
AC50 [6]: > 52 µM (inactive)
AC50 [7]: 2.2 µM (active)
AC50 [8]: 4.38 µM (active)

O=C(N/N=C/c1ccco1)C1COc2ccccc2O1 (configuration not stated)
EC50 [9]: 4.22 µM (active)

C[C@@H]1CN([C@H](C)CO)C(=O)c2cccc(NS(=O)(=O)c3ccc(Cl)cc3)c2O[C@H]1CN(C)Cc1ccc(C(=O)Nc2ccccc2N)cc1
AC50 [1]: 1.77 µM (active)

Nc1ccc(/N=N/c2ccc(/C=C/c3ccc(/N=N/c4ccc(N)c5ccc(S(=O)(=O)O)cc45)cc3S(=O)(=O)O)c(S(=O)(=O)O)c2)c2cc(S(=O)(=O)O)ccc12
GI50 (P388/ADR): > 100 µM (inactive)
GI50 (SN12K1): > 100 µM (inactive)
GI50 (P388): > 100 µM (inactive)

COc1ccccc1N1CCN(C(c2cccs2)C(C)NC(=O)c2cccs2)CC1 (configuration not stated)
EC50 [9]: 0.335 µM (active)

C[C@H](CO)N1C[C@H](C)[C@@H](CN(C)S(=O)(=O)c2ccc(Cl)cc2)Oc2c(cccc2N(C)C)C1=O
AC50 [1]: 10.1 µM (active)

N=C(Nc1ccccc1)Nc1ccccc1
EC50 [9]: 10.6 µM (active)

C=C1C(=O)OCC2C(C(=O)O)=CC3C(C)C(C)=CC123 (configuration not stated)
GI50 (P388/ADR): 5.77 µM (inactive)
GI50 (SN12K1): 9.08 µM (inactive)
GI50 (P388): 5.21 µM (inactive)

COc1ccc(CN(C)C[C@H]2Oc3c(NC(=O)Nc4ccc(C(F)(F)F)cc4)cccc3C(=O)N([C@H](C)CO)C[C@@H]2C)cc1
AC50 [1]: 3.26 µM (active)

COc1cccc2c1C(=O)c1c(O)c3c(c(O)c1C2=O)CC(O)(C(C)=O)CC3O (configuration not stated)
GI50 (P388/ADR): 1.81 µM (inactive)
GI50 (SN12K1): 2.07 µM (inactive)
GI50 (P388): 1.09 µM (active)

CCC1CCCCN1S(=O)(=O)c1ccc(C(=O)N(CCCN(C)C)c2nc3cc4c(cc3s2)OCO4)cc1 (configuration not stated)
EC50 [9]: 6.68 µM (active)

C[C@H]1CN([C@@H](C)CO)C(=O)Cc2cc(NS(=O)(=O)c3ccccc3)ccc2O[C@@H]1CN(C)Cc1ccc(-c2ccccc2)cc1
AC50 [1]: 5.32 µM (active)

CC1OC(O[C@@H]2C=C3CC[C@@H]4[C@H](CC[C@]5(C)[C@@H](c6ccc(=O)oc6)CC[C@]45O)[C@@]3(C)CC2)C(O)C(O)C1O (some centres not stated)
GI50 (P388/ADR): 47.1 µM (inactive)
GI50 (P388): 20.7 µM (inactive)

Clc1ccccc1-c1nc(N/N=C/c2cccnc2)c2ccccc2n1
EC50 [10]: > 112 µM (not active)
EC50 [11]: > 112 µM (not active)
IC50 (H9c2): > 79 µM (inactive)

CN(C)C(=O)/C=C/c1c[nH]c(=O)[nH]c1=O
GI50 (P388/ADR): > 281 µM (inactive)
GI50 (SN12K1): > 500 µM (inactive)
GI50 (P388): > 281 µM (inactive)

Cc1cc(C)c(NS(=O)(=O)c2ccc(O)c(C(=O)O)c2)c(C)c1
IC50 [12]: > 100 µM (not active)

Clc1ccc(Cc2noc(-c3cccs3)n2)cc1
IC50 (Protein skinhead-1): 4.34 µM (active)

Cc1cc(C(=O)CSc2nnc(C3COc4ccccc4O3)n2C)c(C)n1-c1ccc(F)cc1 (configuration not stated)
IC50 (Protein skinhead-1): > 100 µM (inactive)

O=C(NCCc1ccccc1Cl)c1ccc2nc3ccccc3c(=O)n2c1
EC50 [13]: 10.2 µM (active)
EC50 [14]: > 120 µM (not active)
EC50 (H4): > 120 µM (not active)
IC50 (H9c2): > 79 µM (inactive)

COc1ccc(S(=O)(=O)N2CC(C(=O)O)Oc3ccccc32)cc1 (configuration not stated)
IC50 (Protein skinhead-1): > 100 µM (inactive)

CN(C)CC(CC1=C(CC(CN(C)C)N(C)C)CCC1)N(C)C (configuration not stated)
GI50 (P388/ADR): > 100 µM (inactive)
GI50 (SN12K1): > 100 µM (inactive)
GI50 (P388): > 100 µM (inactive)

COc1ccc(CN(C(=O)c2oc3ccccc3c2C)C2CCS(=O)(=O)C2)cc1 (configuration not stated)
IC50 (Protein skinhead-1): > 100 µM (inactive)

Fc1ccc(-c2csc(N3CCSCC3)n2)cc1
IC50 (Protein skinhead-1): > 100 µM (inactive)

COc1ccc(NC(=O)Nc2ccc3c(c2)C(=O)N([C@@H](C)CO)C[C@H](C)[C@@H](CN(C)Cc2ccc(-c4ccccc4)cc2)O3)cc1
AC50 [1]: 5.13 µM (active)

C[C@@H]1CCCCO[C@H](CN(C)Cc2ccc3c(c2)OCO3)[C@@H](C)CN([C@H](C)CO)C(=O)c2cc(NC(=O)Nc3ccc(C(F)(F)F)cc3)ccc2O1
AC50 [1]: 2.16 µM (active)

CCOc1ccc(S(=O)(=O)Nc2ccc(O)c(C(=O)O)c2)cc1
IC50 [12]: > 100 µM (not active)

CC(=O)c1ccc2c(c1)c1c(C)c3c[n+](C)ccc3c(C)c1n2C
GI50 (P388/ADR): 3 µM (inactive)
GI50 (SN12K1): 1.34 µM (inactive)
GI50 (P388): 0.634 µM (active)
